Experimental data reported in PubChem BioAssay (NCI).
“And” between values parts separate entries of the source, which are not always exact repeats. Equal values may be shown once.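 A five-concentration, 48-hour dose response in 96-well plates underlies each endpoint, interpolated linearly between surrounding concentrations. GI50: concentration for 50% inhibition of growth. TGI: total growth inhibition.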

How the values were obtained:
Assay in all cases: growth of human tumour cells (NCI), 48 h
[1] = tested on: HOP-92 NSCLC
[2] = tested on: SK-MEL-2 melanoma
[3] = tested on: SN12C renal
[4] = tested on: SNB-75 CNS
[5] = tested on: DU-145 prostate
[6] = tested on: M14 melanoma
[7] = tested on: NCI-H23 lung
[8] = tested on: MALME-3M melanoma
[9] = tested on: BT-549 breast
[10] = tested on: LOX IMVI melanoma

SMILES | GI50 [1] [µM] | TGI [1] [µM] | GI50 [2] [µM] | TGI [2] [µM] | GI50 [3] [µM] | TGI [3] [µM] | GI50 [4] [µM] | TGI [4] | GI50 [5] [µM] | TGI [5] [µM] | GI50 [6] [µM] | TGI [6] [µM] | GI50 [7] [µM] | TGI [7] [µM] | GI50 [8] [µM] | TGI [8] [µM] | GI50 [9] [µM] | TGI [9] [µM] | GI50 [10] [µM] | TGI [10] [µM]
O=C(NCCCCCCCNC(=O)OCc1ccc2c(Cl)cc(Cl)c(O)c2n1)OCc1ccc2c(Cl)cc(Cl)c(O)c2n1 | 1.07 | 2.71 | 1.33 | 2.78 | 0.774 | 2.17 | 0.905 | 2.43 µM | 0.672 | 1.99 | 0.419 | 1.73 | 1.49 | 3.2 | 1.2 | 2.53 | 0.359 | 1.42 | 0.187 | 0.379
CCOc1cc(-c2ccc[nH]2)[nH]c1/C=C1\N=C(C)C(C(=O)OC)=C1C | 0.0148 | 0.049 | 0.0256 | 0.0893 | 0.0444 | 1.72 | 0.0364 | 0.3 µM | 0.0549 | 1.56 | 0.0348 | 1.18 | 0.0876 | 1.92 | 0.216 | 4.3 | 0.0451 | 1.92 | 0.0102 | 0.0381
CC1OC2OC3C(OCC(O)C3O)OC(=O)[C@]34CCC(C)(C)CC3C3=CCC5[C@@]6(C)C[C@H](O)[C@H](OC7OC(CO)C(O)C(O)C7OC7OCC(OC(=O)CC(C)(O)CC(=O)OC1C(OC1OC(CO)C(O)C(O)C1O)C2O)C(O)C7O)[C@@](C)(CO)C6CC[C@@]5(C)[C@]3(C)CC4 (stereo not given in full) |  | 21.6 |  | 13.5 |  | 23.3 |  | 22.9 µM |  | 17.3 |  | 15 |  | 14.1 |  | 17.5 |  | 21.1 |  | 20.6
COc1cccc(/C=C/C(=O)c2cc3c(N)c(C(=O)Nc4cccc5ccccc45)sc3nc2C)c1 | 0.953 | 4.9 | 1.71 | > 50 | 1.14 | 2.98 | 1.02 | 3.15 µM | 1.14 | 2.86 | 1.31 | 4.69 | 1.96 | > 50 | 1.96 | > 50 | 1.2 | 3.88 | 0.826 | 1.69
Nc1ccc(S(=O)(=O)Nc2cnc3c(Cl)cccc3n2)cc1 |  | 544 |  | 707 | > 81.5 | > 750 | 51.6 | > 95 µM and 682 µM |  | > 750 |  | > 750 | > 82.4 | 549 |  | > 750 | 220 | > 750 | > 20.2 | > 736
NS(=O)(=O)c1ccc(NNc2c3ccccc3nc3c(C(=O)Nc4ccc(S(=O)(=O)Nc5ncccn5)cc4)cccc23)cc1 |  | > 25 |  | > 25 |  | > 25 |  | > 25 µM |  | > 25 |  | > 25 |  | > 25 |  | > 25 |  | > 25 |  | > 25
COc1cc(/C=C(\C#N)C(N)=C(C#N)C#N)cc(O)c1O |  | > 100 |  | > 100 |  | > 100 |  | > 100 µM |  | > 100 |  | > 100 |  | > 100 |  | > 100 |  | > 100 |  | > 100
Cc1cc(Cl)ccc1Nc1nc(C(F)(F)F)ccc1C(=O)N1CCN(c2cccc(Cl)c2)CC1 | 73.4 | > 100 | > 100 | > 100 | > 100 | > 100 | 1.11 | 87.5 µM | > 100 | > 100 | > 100 | > 100 | > 100 | > 100 | > 100 | > 100 | > 100 | > 100 | > 100 | > 100
COc1cc(NC(=O)Nc2cnc(Nc3ccc(N4CCOCC4)cc3)nc2Oc2cccc(OC)c2)cc(OC)c1 | 1.14 | 3.51 | 1.74 | 8.67 | 1.3 | 3.71 | 1.1 | 4.69 µM | 1.73 | 5.82 | 1.85 | 9.2 | 1.82 | 11.8 | 1.28 | 3.82 | 1.49 | 5.74 | 1.47 | 5.59
Nc1[nH]c(=O)ncc1CO | > 100 | > 100 | > 100 | > 100 | > 100 | > 100 | > 100 | > 100 µM | > 100 | > 100 | > 100 | > 100 | > 100 | > 100 | > 100 | > 100 | > 100 | > 100 | > 100 | > 100
